Assay results taken from patent US9889183B2, “PKC activators and anticoagulant in regimen for treating stroke” (BLANCHETTE ROCKEFELLER NEUROSCIENCES INSTITUTE, priority 2010, dated 2018).
One block for each compound: values may come before it.

What was measured:
[1] = system: PKC in H19-7/IGF-IR cells; test: PKC activity over time in rat H19-7/IGF-IR hippocampal cells; assay type: cell-based; conditions: treated cells, 8 hours; data not shown
Protocol: Cell culture. Rat hippocampal H19-7/IGF-IR cells (ATCC, Manassas, Va.) were plated onto poly-L-lysine coated plates and grown at 35° C. in DMEM/10% FCS for several days until about 50% coverage was obtained. The cells were then induced to differentiate into a neuronal phenotype by replacing the medium with 5 ml N2 medium containing 10 ng/ml basic fibroblast growth factor at 39° C. and grown in T-75 flasks at 37° C. Human SH-SY5Y neuroblastoma cells (ATCC) were cultured in 45% F12K/45% MEM/10% FCS. Mouse N2A neuroblastoma cells were cultured in DMEM/10% FCS without glutamine. Rat hippocampal neurons from 18-day-old embryonic Sprague Dawley rat brains were plated on 12- or 96-well plates coated with poly-D-lysine (Sigma-Aldrich, St. Louis, Mo.) in B-27 neurobasal medium containing 0.5 mM glutamine and 25 μM glutamate (Invitrogen, Carlsbad, Calif.) and cultured for three days in the medium without glutamate. The neuronal cells were grown under 5% CO2 in an incubator maintained at 37° C. for 14 days.
(§1) Protein kinase C assay. Rat hippocampal cells were cultured and scraped in 0.2 ml homogenization buffer (20 mM Tris-HCl, pH 7.4, 50 mM NaF, 1 μg/ml leupeptin, and 0.1 mM PMSF) and homogenized by sonication a Marsonix microprobe sonicator (5 sec, 10 W). To measure PKC, 10 μl of cell homogenate or purified PKC isozyme (purchased from Calbiochem) was incubated for 15 min at 37° C. in the presence of 10 μM histones, 4.89 mM CaCl2, 1.2 μg/μl phosphatidyl-L-serine, 0.18 μg/μl 1,2-dioctanoyl-sn-glycerol, 10 mM MgCl2, 20 mM HEPES (pH 7.4), 0.8 mM EDTA, 4 mM EGTA, 4% glycerol, 8 μg/ml aprotinin, 8 μg/ml leupeptin, and 2 mM benzamidine. […][^γ32P]ATP was added and ^32P-phosphoprotein formation was measured by adsorption onto phosphocellulose as described previously. Nelson and Alkon, J. Neurochemistry (1995), vol. 65, pp. 2350-2357. For measurements of activation by BR-101 (DCP-LA) and similar compounds. PKC activity was measured in the absence of diacylglycerol and phosphatidylserine and PKC δ, ε, η, and μ were measured in the absence of added EGTA and CaCl2, as described by Kanno et al. (J. Lipid Res. 2006, vol. 47, pp. 1146-1150). Low concentrations of Ca^2+ are used because high Ca^2+ interacts with the PKC phosphatidylserine binding site and prevents activation. For measurements of bryostatin activation, 1,2-diacylglycerol was omitted unless otherwise stated.
PKC activators that bind to the diacylglycerol binding site, including bryostatin, gnidimacrin, and phorbol esters, produce a transient activation of PKC activity, followed by a prolonged downregulation. Nelson et al., Trends in Biochem. Sci. (2009), vol. 34, pp. 136-145. This was confirmed in cultured rat hippocampal cells. Incubation of rat H19-7/IGF-IR cells with (0.04 nM and 0.2 nM) bryostatin produced a 2-fold activation that lasted 30 min, followed by a 20% downregulation that returned to baseline by 24 hours (data not shown). […] This sustained activation was only observed in primary neurons.

[2] = target: T1, PKCε (Homo sapiens, UniProt Q02156); test: PKC assay with purified PKCε; assay type: biochemical; conditions: for activation of purified PKCε (in words): FIG. 7, methyl esters
T1 construct: purchased Calbiochem
T1 sequence (Q02156 1-737): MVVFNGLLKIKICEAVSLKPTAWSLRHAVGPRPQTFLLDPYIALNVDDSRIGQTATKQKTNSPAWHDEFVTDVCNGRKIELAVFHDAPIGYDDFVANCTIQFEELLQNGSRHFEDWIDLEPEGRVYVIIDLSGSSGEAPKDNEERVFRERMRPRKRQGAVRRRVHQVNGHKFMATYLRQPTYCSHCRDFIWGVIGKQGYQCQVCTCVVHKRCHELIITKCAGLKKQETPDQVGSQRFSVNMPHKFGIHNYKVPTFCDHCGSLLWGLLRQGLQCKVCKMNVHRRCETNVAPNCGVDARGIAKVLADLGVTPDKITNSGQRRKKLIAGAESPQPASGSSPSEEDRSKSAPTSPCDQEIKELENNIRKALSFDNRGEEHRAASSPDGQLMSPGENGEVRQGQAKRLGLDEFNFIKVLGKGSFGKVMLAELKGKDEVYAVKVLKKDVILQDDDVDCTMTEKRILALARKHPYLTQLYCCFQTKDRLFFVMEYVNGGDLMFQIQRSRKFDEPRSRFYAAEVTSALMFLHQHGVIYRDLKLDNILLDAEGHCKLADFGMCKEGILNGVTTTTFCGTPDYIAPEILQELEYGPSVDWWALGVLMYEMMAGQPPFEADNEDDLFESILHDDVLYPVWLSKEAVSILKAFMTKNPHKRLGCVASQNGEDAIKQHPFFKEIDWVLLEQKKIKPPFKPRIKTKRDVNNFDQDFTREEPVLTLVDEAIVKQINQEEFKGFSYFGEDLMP
Protocol: PKC assay. Recombinant PKC (1 ng of PKCα or PKCε isoform) was mixed with BR-101 (DCP-LA) in the presence of 10 micromolar histones, 5 mM CaCl2, 1.2 μg/μl phosphatidyl-L-serine, 0.18 μg/μl 1,2-dioctanoyl-sn-glycerol (DAG), 10 mM MgCl2, 20 mM HEPES (pH 7.4), 0.8 mM EDTA, 4 mM EGTA, 4% glycerol, 8 μg/ml aprotinin, 8 μg/ml leupeptin, and 2 mM benzamidine. 0.5 micro Ci[^γ32P]ATP was added. The incubation mixture was incubated for 15 min at 37 degrees in a total volume of 10 microliters. The reaction was stopped by spotting the reaction mixtures on 1×2 cm strips of cellulose phosphate paper (Whatman P81) and immediately washing twice for 1 hr in 0.5% H3PO4. The cellulose phosphate strips were counted in a scintillation counter. In some experiments, phosphatidylserine, diacylglycerol, and/or calcium were removed.
DHA methyl ester was purchased from Cayman Chemical (Ann Arbor, Me.). PKC isozymes were from Calbiochem (San Diego, Calif.). Purified PKCε was purchased from Calbiochem.
as §1
To determine their PKC isozyme specificity, fatty acid derivatives were preincubated with purified PKC for five minutes and the PKC activity was measured radiometrically.

[3] = system: PKC; conditions: cited from earlier work
[4] = system: squamous cell carcinoma and melanoma; conditions: used topically; cited from earlier work
[5] = system: Aβ in COS cells; conditions: 1 μM, cultured COS cells, 8 hours; cited from earlier work
[6] = system: global cerebral ischemia/hypoxia in rats; test: Global ischemia model, water maze (Examples 10-11); assay type: in vivo, rat
Protocol: Rats (male, Wistar, 200-225 g) were randomly divided into 6 groups (8 each) and housed for 1 week before experimentation. […] The global ischemia model used to induce vascular memory impairment was two-vessel occlusion combined with a short term systemic hypoxia. Ligation of the bilateral common carotid arteries was performed under anesthesia (pentobarbital, 60 mg/kg, i.p.). After a one-week recovery from the surgery, rats were exposed to 14-min hypoxia (5% oxygen in a glass jar). Control rats (sham operated and vehicle controls) were subjected to the same incision to isolate both common carotid arteries and to 14-min air (in the glass jar). Body temperature was kept at 37-37.5° C. using a heating light source during the surgical procedure and until the animals were fully recovered.

[7] = non-ischemic rats, same regimens

Compound: CCCCCCCCCCCCCC(=O)O[C@@H]1[C@@H](C)[C@@]2(O)[C@@H](C=C(CO)C[C@]3(O)C(=O)C(C)=C[C@@H]23)[C@@H]2C(C)(C)[C@]12OC(C)=O [PMA, phorbol 12-myristate 13-acetate]
- PKC activity at 8 hours (downregulation) [1]: strongly downregulated

- effect on PKC ([2]; FIG. 8): little or no effect
Compound: CCCCCC1CC1CC1CC1CCCCCCCCO (stereo not shown) [BR-105, linoleic alcohol dicyclopropane]

- concentration needed to activate PKC relative to BR-101 (DCP-LA) [2]: approximately 100 times lower
Compound: CCC1CC1CC1CC1CC1CC1CC1CC1CC1CC1CCCC(=O)OC (stereo not shown) [BR-114]
- activation of purified PKCε (in words) [2]: activated purified PKCε to a similar extent

- effect on PKC ([2]; FIG. 8): little or no effect
Compound: epoxystearic acid [BR-116]

Compound: CCCCCCCC(=O)O[C@H]1/C(=C/C(=O)OC)C[C@H]2C[C@H](CO)OC(=O)C[C@H](O)C[C@@H]3CCC[C@H](C[C@@H]4CCO[C@H](/C=C/C(C)(C)[C@]1(O)O2)O4)O3 [Analog 1]
- affinity for PKC (in words) [3]: highest affinity

Compound: C/C=C(/C)C(=O)O[C@H]1C(C)=C[C@]23C(=O)[C@@H](C=C(CO)[C@@H](O)[C@]12O)[C@H]1[C@@H](C[C@H]3C)C1(C)C [Ingenol-3-angelate]
- antitumor activity [4]: exhibits antitumor activity

- concentrations at which PKCε is inhibited ([2]; FIG. 8): above 1 μM
Compound: CCCCC[C@H]1O[C@H]1CC1CC1CCCCCCCC(=O)OC (stereo partly shown) [BR-109, vernolic acid methyl ester cyclopropane]

- effect on PKC ([2]; FIG. 8): little or no effect
Compound: CCC1CC1CC1CC1CC1CC1CCCCCCCCO (stereo not shown) [BR-104, linolenic alcohol tricyclopropane]

Compound: CCCC(=O)O[C@@H]1[C@@H](C)[C@@]2(O)[C@@H](C=C(CO)C[C@]3(O)C(=O)C(C)=C[C@@H]23)[C@@H]2C(C)(C)[C@]12OC(=O)CCC [PdBu]
- effect on Aβ [5]: increase in Aβ

- concentration needed to activate PKC relative to BR-101 (DCP-LA) [2]: approximately 100 times lower
Compound: CCCCCC1CC1CC1CC1CC1CC1CC1CC1CCCC(=O)OC (stereo not shown) [BR-115, methyl 4-(2-((2-((2-((-pentylcyclopropyl)methyl)cyclopropyl)methyl)cyclopropyl)methyl)cyclopropyl)butanoate methyl ester]
- activation of purified PKCε (in words) [2]: activated purified PKCε to a similar extent

Compound: CCCCCC1OC1C/C=C\CCCCCCCC(=O)OC (stereo in doubt) [BR-117, vernolic acid methyl ester]
- effect on PKC ([2]; FIG. 8): little or no effect

Compound: Cc1ccc(OCC(=O)O)c(OCC(=O)O)c1 [MCDA, 4-Methylcatechol-diacetic acid]
- water maze spatial learning, ischemic treated vs ischemic rats ([6]; bryostatin-1 20 μg/m^2 i.v. 2 doses/week, 10 doses, MCDA 1.0 mg/kg i.p. daily 5 weeks, start 24 hours after hypoxia): improved the learning
- target quadrant ratio in probe test, drug-only vs control rats [6, 7]: no differences
- water maze spatial learning, drug-only vs control rats [6, 7]: no differences
- target quadrant ratio in probe test, ischemic treated vs control rats ([6]; same regimens): no differences
- target quadrant ratio in probe test, ischemic treated vs ischemic rats ([6]; same regimens): group differences
- water maze spatial learning, ischemic treated vs control rats ([6]; same regimens): remained significant
